From US5767296A, “Deacetoxytaxol derivatives” (Daiichi Pharmaceutical Co., Ltd., priority 1994, dated 1998)
In brackets after ≈: the same amount, converted by molar mass. Read-outs that look alike come from different tables or passages of the source.

How the values were obtained:
P388 = assay: Antitumor effect by MTT assay, P388 tumor cells; assay type: cell-based; settings: Mus musculus, read-out: GI50 Value
Method: (§1) Each of three tumor cells, P388, PC-6 and PC-12, were inoculated in a 96-well microplate in amounts of 5.0×10^2 cells/150 μl/well of P388, 5.0×10^3 cells/150 μl/well of PC-6, and 1.0×10^3 cells/150 μl/well of PC-12, and after 2 hours in the case of P388 or after 24 hours in the cases of PC-6 and PC-12, test compound was added to the well in an amount of 50 μl/well in each case. Cells were cultivated for 3 days. Then, a 5 mg/ml solution of MTT [3-(4,5-dimethylthiazol-2-yl)-2,5-diphenyl-2H-tetrazolium bromide] was added to the well in an amount of 20 μl/well. After 4 hours, the culture liquid was removed, dimethylsulfoxide was added to the well in an amount of 150 μl/well, and the absorbance at 540 nm was measured. The antitumor effect was determined in terms of a concentration of the test compound required for suppressing the cell growth in the medicated group to 50% of the cell growth in the control group, i.e., a GI50 value (ng/ml).

PC-12 = assay: Antitumor effect by MTT assay, PC-12 tumor cells; assay type: cell-based; settings: Rattus norvegicus, read-out: GI50 Value
Method: as §1

PC-6 = assay: Antitumor effect by MTT assay, PC-6 tumor cells; assay type: cell-based; settings: Homo sapiens, read-out: GI50 Value
Method: as §1

[1] = test system: cancers of digestive tracts, in particular, the cancer of large intestine; settings: background art; cited from earlier work
microtubules = settings: background art; cited from earlier work
tumor = settings: background art; cited from earlier work

SMILES | GI50 (P388; P388, 72 h) | GI50 (PC-12; PC-12, 72 h) | GI50 (PC-6; PC-6, 72 h) | GI50 (P388; 72 h, P388, 3 days, MTT) | GI50 (PC-12; 72 h, PC-12, 3 days, MTT) | GI50 (PC-6; 72 h, PC-6, 3 days, MTT) | effectiveness on cancers of digestive tracts [1] | inhibitory activity on the disassembly of microtubules in cytokinesis (microtubules) | antitumor activity compared with taxol (tumor)
CCC(=O)O[C@@]12CO[C@@H]1C[C@H](O)[C@@]1(C)C(=O)C(CCN3CCOCC3)C3=C(C)[C@@H](OC(=O)C(O)C(C=C(C)C)NC(=O)OC(C)(C)C)C[C@@](O)([C@@H](OC(=O)c4ccccc4)[C@H]21)C3(C)C (single isomer, unassigned) [Example 33 Isomer B, 13-O-[3-(tert-Butoxycarbonylamino)-2-hydroxy-5-methyl-4-hexenoyl]-10-deacetoxy-4-deacetyl-10-(2-morpholinoethyl)-4-O-propionylbaccatin III] | 0.69 ng/mL (≈ 0.769 nM) | 4.16 ng/mL (≈ 4.64 nM) | 4.13 ng/mL (≈ 4.6 nM) | – | – | – | – | – | –
COC(=O)CCC1C(=O)[C@@]2(C)[C@H]([C@H](OC(=O)c3ccccc3)[C@]3(O)C[C@H](OC(=O)[C@H](O)[C@@H](NC(=O)OC(C)(C)C)c4ccccc4)C(C)=C1C3(C)C)[C@]1(OC(C)=O)CO[C@@H]1C[C@@H]2O (stereo partly drawn) [Example 7, 13-O-[(2R,3S)-3-(tert-Butoxycarbonylamino)-2-hydroxy-3-phenylpropionyl]-10-deacetoxy-10-(2-methoxycarbonylethyl)baccatin III] | 3.3 ng/mL (≈ 3.76 nM) | 24.4 ng/mL (≈ 27.8 nM) | 0.771 ng/mL (≈ 0.878 nM) | – | – | – | – | – | –
C=CCC1C(=O)[C@@]2(C)[C@H]([C@H](OC(=O)c3ccccc3)[C@]3(O)C[C@H](OC(=O)[C@H](O)[C@@H](NC(=O)OC(C)(C)C)c4ccccc4)C(C)=C1C3(C)C)[C@]1(OC(C)=O)CO[C@@H]1C[C@@H]2O (stereo partly drawn) [Example 16, 10-Allyl-13-O-[(2R,3S)-3-(tert-butoxycarbonylamino)-2-hydroxy-3-phenylpropionyl]-10-deacetoxybaccatin III] | 1.16 ng/mL (≈ 1.39 nM) | 7.87 ng/mL (≈ 9.46 nM) | 0.677 ng/mL (≈ 0.814 nM) | – | – | – | – | – | –
CC(=O)O[C@@]12CO[C@@H]1C[C@H](O)[C@@]1(C)C(=O)C(CC=O)C3=C(C)[C@@H](OC(=O)[C@H](O)[C@@H](NC(=O)OC(C)(C)C)c4ccccc4)C[C@@](O)([C@@H](OC(=O)c4ccccc4)[C@H]21)C3(C)C (stereo partly drawn) [Example 18, 13-O-[(2R,3S)-3-(tert-Butoxycarbonylamino)-2-hydroxy-3-phenylpropionyl]-10-deacetoxy-10-(formylmethyl)baccatin III] | 1.19 ng/mL (≈ 1.43 nM) | 12.9 ng/mL (≈ 15.5 nM) | 0.983 ng/mL (≈ 1.18 nM) | – | – | – | – | – | –
CC(=O)O[C@@]12CO[C@@H]1C[C@H](O)[C@@]1(C)C(=O)C(CCN3CCOCC3)C3=C(C)[C@@H](OC(=O)[C@H](O)[C@@H](NC(=O)OC(C)(C)C)c4ccccc4)C[C@@](O)([C@@H](OC(=O)c4ccccc4)[C@H]21)C3(C)C (stereo partly drawn) [Example 20, 13-O-[(2R,3S)-3-(tert-Butoxycarbonylamino)-2-hydroxy-3-phenylpropionyl]-10-deacetoxy-10-(2-morpholinoethyl)baccatin III] | – | – | – | 3.07 ng/mL (≈ 3.39 nM) | 13.5 ng/mL (≈ 14.9 nM) | 0.603 ng/mL (≈ 0.666 nM) | – | – | –
CCCC(=O)O[C@@]12CO[C@@H]1C[C@H](O)[C@@]1(C)C(=O)C(CCN3CCOCC3)C3=C(C)[C@@H](OC(=O)[C@H](O)[C@@H](NC(=O)OC(C)(C)C)c4ccccc4)C[C@@](O)([C@@H](OC(=O)c4ccccc4)[C@H]21)C3(C)C (stereo partly drawn) [Example 24, 4-O-Butanoyl-13-O-[(2R,3S)-3-(tert-butoxycarbonylamino)-2-hydroxy-3-phenylpropionyl]-10-deacetoxy-4-deacetyl-10-(2-morpholinoethyl)baccatin III] | 0.845 ng/mL (≈ 0.906 nM) | 4.99 ng/mL (≈ 5.35 nM) | 1.67 ng/mL (≈ 1.79 nM) | – | – | – | – | – | –
C=CCC1C(=O)[C@@]2(C)[C@H]([C@H](OC(=O)c3ccccc3)[C@]3(O)C[C@H](OC(=O)[C@H](O)[C@@H](NC(=O)OC(C)(C)C)c4ccco4)C(C)=C1C3(C)C)[C@]1(OC(=O)CCC)CO[C@@H]1C[C@@H]2O (stereo partly drawn) [Example 25, 10-Allyl-4-O-Butanoyl-13-O-[3-(tert-butoxycarbonylamino)-3-(2-furyl)-2-hydroxypropionyl]-10-deacetoxy-4-deacetylbaccatin III] | – | – | – | 0.226 ng/mL (≈ 0.266 nM) | 1.34 ng/mL (≈ 1.58 nM) | 0.771 ng/mL (≈ 0.907 nM) | – | – | –
CCC(=O)O[C@@]12CO[C@@H]1C[C@H](O)[C@@]1(C)C(=O)C(CCN3CCOCC3)C3=C(C)[C@@H](OC(=O)[C@H](O)[C@@H](NC(=O)OC(C)(C)C)c4ccccc4)C[C@@](O)([C@@H](OC(=O)c4ccccc4)[C@H]21)C3(C)C (stereo partly drawn) [Example 26, 13-O-[(2R,3S)-3-(tert-butoxycarbonylamino)-2-hydroxy-3-phenylpropionyl]-10-deacetoxy-4-deacetyl-10-(2-morpholinoethyl)-4-O-propionylbaccatin III] | 1.07 ng/mL (≈ 1.16 nM) | 5.64 ng/mL (≈ 6.14 nM) | 1.22 ng/mL (≈ 1.33 nM) | – | – | – | – | – | –
CCC(=O)O[C@@]12CO[C@@H]1C[C@H](O)[C@@]1(C)C(=O)C(CCN3CCOCC3)C3=C(C)[C@@H](OC(=O)[C@H](O)[C@@H](NC(=O)OC(C)(C)C)c4ccco4)C[C@@](O)([C@@H](OC(=O)c4ccccc4)[C@H]21)C3(C)C (stereo partly drawn) [Example 31, 13-O-[(2R,3S)-3-(tert-Butoxycarbonylamino)-3-(2-furyl)-2-hydroxypropionyl]-10-deacetoxy-4-deacetyl-10-(2-morpholinoethyl)-4-O-propionylbaccatin III] | 0.136 ng/mL (≈ 0.15 nM) | 1.26 ng/mL (≈ 1.39 nM) | 1.03 ng/mL (≈ 1.13 nM) | – | – | – | – | – | –
CCOC(=O)O[C@@]12CO[C@@H]1C[C@H](O)[C@@]1(C)C(=O)C(CCN3CCOCC3)C3=C(C)[C@@H](OC(=O)[C@H](O)[C@@H](NC(=O)OC(C)(C)C)c4ccccc4)C[C@@](O)([C@@H](OC(=O)c4ccccc4)[C@H]21)C3(C)C (stereo partly drawn) [Example 35, 13-O-[(2R,3S)-3-(tert-Butoxycarbonylamino)-2-hydroxy-3-phenylpropionyl]-10-deacetoxy-4-deacetyl4-O-ethoxycarbonyl-10-(2-morpholinoethyl)baccatin III] | 0.729 ng/mL (≈ 0.78 nM) | 2.95 ng/mL (≈ 3.15 nM) | 1.83 ng/mL (≈ 1.96 nM) | – | – | – | – | – | –
CC1=C2C(CCN3CCOCC3)C(=O)[C@@]3(C)[C@H]([C@H](OC(=O)c4ccccc4)[C@](O)(C[C@@H]1OC(=O)[C@H](O)[C@@H](NC(=O)OC(C)(C)C)c1ccccc1)C2(C)C)[C@]1(OC(=O)C2CC2)CO[C@@H]1C[C@@H]3O (stereo partly drawn) [Example 36, 13-O-[(2R,3S)-3-(tert-butoxycarbonylamino)-2-hydroxy-3-phenylpropionyl]-4-O-cyclopropylcarbonyl-10-deacetoxy-10-(2-morpholinoethyl)baccatin III] | 0.505 ng/mL (≈ 0.542 nM) | 1.81 ng/mL (≈ 1.94 nM) | 1.64 ng/mL (≈ 1.76 nM) | – | – | – | – | – | –
CC(=O)O[C@H]1C(=O)[C@@]2(C)[C@H]([C@H](OC(=O)c3ccccc3)[C@]3(O)C[C@H](OC(=O)[C@H](O)[C@@H](NC(=O)c4ccccc4)c4ccccc4)C(C)=C1C3(C)C)[C@]1(OC(C)=O)CO[C@@H]1C[C@@H]2O [Taxol] | 30.4 ng/mL (≈ 35.6 nM) | 136 ng/mL (≈ 159 nM) | 3.51 ng/mL (≈ 4.11 nM) | – | – | – | weak | inhibitory activity on the disassembly of microtubules in cytokinesis | –
CC(=O)O[C@@]12CO[C@@H]1C[C@H](O)[C@@]1(C)C(=O)[C@H](O)C3=C(C)[C@@H](OC(=O)[C@H](O)[C@@H](NC(=O)OC(C)(C)C)c4ccccc4)C[C@@](O)([C@@H](OC(=O)c4ccccc4)[C@H]21)C3(C)C [Taxotel, reference compound] | – | – | – | 5.3 ng/mL (≈ 6.56 nM) | 49.7 ng/mL (≈ 61.5 nM) | 1.72 ng/mL (≈ 2.13 nM) | – | – | equal to or higher than that of taxol
